The values that follow come from US6660468B1, “Vitro and in vivo models for screening compounds to prevent glucocorticoid-induced bone destruction” (Board of Trustees of the University of Arkansas, priority 1998, dated 2003).

The test system of series [1] is human osteoblasts and osteocytes. Kind of series: Apoptosis (TUNEL) in transiliac bone biopsies of patients with glucocorticoid-induced osteoporosis. Format: in vivo. Particulars: two patients. The method, then:
Sections were mounted on silane-coated glass slides (Scientific Device Lab, Inc., Des Plains, Ill.), deplasticized and incubated in 10 mM citrate buffer, pH 7.6, in a microwave oven at 98° C. for 5 minutes. Slides were then incubated with 0.5% pepsin for 30 minutes at 37° C. Apoptotic cells were detected by the TUNEL reaction (transferase-mediated biotin-dUTP nick end-labeling) using Klenow terminal deoxynucleotidyl transferase (Oncor, Gaithersburg, Md.) in sections counterstained with 1% methyl green. The TUNEL reaction was noted within cell nuclei and the cells whose nuclei were clearly brown from the peroxidase-labeled anti-digoxigenin antibody instead of the blue-green from the methyl green were interpreted as positive. Plastic-embedded sections of weaned rat mammary tissue were used as a positive control. Negative controls were made by omitting the transferase. Morphological changes characteristic of apoptosis were examined carefully to minimize ambiguity regarding the interpretation of results. With these precautions, TUNEL has been unequivocally associated with apoptosis (19). […] Apoptosis was also assessed in transiliac bone biopsy specimens taken from two patients with glucocorticoid-induced osteoporosis (receiving 15 to 25 mg/d of prednisone for 3 to 6 yr) and from 12 age-, sex- and race-matched controls (13). […]

The subject of series [2] is human cancellous bone. Briefly: Bone histomorphometry of transiliac bone biopsies of patients. Format: in vivo. The note with it: two patients. The method, then:
The distal femora and lumbar vertebrae were fixed in 4° C. Millonig's phosphate-buffered 10% formalin, pH 7.4, embedded undecalcified in methyl methacrylate and stained (7,9,13). The histomorphometric examination was done with a computer and digitizer tablet (OsteoMetrics Inc. Version 3.00, Atlanta, Ga.) interfaced to a Zeiss Axioscope (Carl Zeiss, Inc., Thornwood, N.Y.) with a drawing tube attachment. All cancellous measurements were two-dimensional, confined to the secondary spongiosa and made at ×400 magnification (numerical aperture 0.75). The terminology and units used are those recommended by the Histomorphometry Nomenclature Committee of the American Society for Bone and Mineral Research (14). The trabecular width and osteoid width were measured directly. Trabecular spacing and number were calculated (15). Only TRAPase-positive cells were included in the osteoclast perimeter. The rate of bone formation (μm^2/μm/d) and turnover (%/d) were calculated (7).
Sections were mounted on silane-coated glass slides (Scientific Device Lab, Inc., Des Plains, Ill.), deplasticized and incubated in 10 mM citrate buffer, pH 7.6, in a microwave oven at 98° C. for 5 minutes. Slides were then incubated with 0.5% pepsin for 30 minutes at 37° C. Apoptotic cells were detected by the TUNEL reaction (transferase-mediated biotin-dUTP nick end-labeling) using Klenow terminal deoxynucleotidyl transferase (Oncor, Gaithersburg, Md.) in sections counterstained with 1% methyl green. The TUNEL reaction was noted within cell nuclei and the cells whose nuclei were clearly brown from the peroxidase-labeled anti-digoxigenin antibody instead of the blue-green from the methyl green were interpreted as positive. Plastic-embedded sections of weaned rat mammary tissue were used as a positive control. Negative controls were made by omitting the transferase. Morphological changes characteristic of apoptosis were examined carefully to minimize ambiguity regarding the interpretation of results. With these precautions, TUNEL has been unequivocally associated with apoptosis (19). […] Apoptosis was also assessed in transiliac bone biopsy specimens taken from two patients with glucocorticoid-induced osteoporosis (receiving 15 to 25 mg/d of prednisone for 3 to 6 yr) and from 12 age-, sex- and race-matched controls (13). Two longitudinal sections were examined from each patient and control subject. Osteoblasts were identified as cuboidal cells lining the osteoid-covered trabecular perimeter (7,9,13). Osteocytes were identified inside lacunae in mineralized bone.

Values joined by “and” are separate entries in the source; they are usually repeats but may differ in a detail not shown here. Identical values can stand only once.

With `C[C@]12C=CC(=O)C=C1CC[C@@H]1[C@@H]2C(=O)C[C@@]2(C)[C@H]1CC[C@]2(O)C(=O)CO` [prednisone], the “Apoptosis of osteoclasts or cortical osteocytes” value in series [1] is “not observed”. In addition, the “Apoptotic osteoblasts in cancellous bone” value in series [1] (15 to 25 mg/d for 3 to 6 yr, absent in controls) is given as approximately 30%. In addition, the Cancellous bone area in series [2] (one value each, normal is 22.4±1.2 SEM) was 11.1% and 8.8%. Further, the Osteoclast perimeter in series [2] (normal is 0.9±0.2) was 0% and 0.4%. Also, the Reversal perimeter in series [2] (normal is 6.9±0.7) was 13.5% and 15.4%. Also, in series [2] (normal is 7.6±0.4), the Osteoblast perimeter was 2.1% and 2.3%. In series [2] (normal is 161±9), the Trabecular width is 62 μm and 118 μm.
